Results from patent US8859060B2, “Protective film of polarizer, polarizer and liquid crystal display device” (FUJIFILM Corporation, priority 2009, dated 2014).
Values joined by “and” are separate entries in the source; they are usually repeats but may differ in a detail not shown here. Equal entries are not always repeated.

Test: Acid dissociation constant by alkali titration in THF/water=6/4
Format: physicochemical
Conditions: mixed solvent of THF/water=6/4 by volume at 25° C.
Method: Preferably, the acid dissociation constant of the organic acid in a mixed solvent of THF/water=6/4 by volume at 25° C. is from 2.5 to 7, more preferably from 2.5 to 6.5, even more preferably from 3 to 5.
With `CCC(Oc1ccc(C(C)(C)CC)cc1C(C)(C)CC)C(=O)Nc1cccc(C(=O)O)c1` (stereo not shown) [Organic acid B] the Acid dissociation constant was 6.6. For `CCC(C)(C)c1ccc(OCCCC(=O)O)c(C(C)(C)CC)c1` [Organic acid F, reference compound], the Acid dissociation constant was 7.3. In the case of `O=C(O)c1ccc(C(=O)O)cc1` [Terephthalic acid, reference compound], the Acid dissociation constant is reported as 4.5. `Nc1c(F)c(F)c(C(=O)O)c(F)c1F` [Organic acid C] showed an Acid dissociation constant of 5.0. For `O=C(O)C=Cc1ccccc1` [Cinnamic acid, cinnamic acid, reference compound], the Acid dissociation constant was 4.7. For `O=C1NC(=O)N(Cc2ccccc2)C(=O)C1c1ccccc1` (stereo not shown) [Organic acid A], the Acid dissociation constant was 4.0 and 3.0. With `CC(=O)Nc1c(I)cc(I)c(C(=O)O)c1I` [Organic acid D] the Acid dissociation constant was 4.4. `O=C1NS(=O)(=O)c2ccccc21` [Organic acid H] gave an Acid dissociation constant of 2.6. Compound `O=C(O)CC(O)(CC(=O)O)C(=O)O` [Citric acid, citric acid, reference compound] has an Acid dissociation constant of 4.0.

Test: Solubility in water at 25° C.
Conditions: not given
In the case of `O=C(O)c1ccc(C(=O)O)cc1` [Terephthalic acid, reference compound], the Solubility to water is reported as “More than 1 wt %”.
